{
  "source": "paper PMC4435776",
  "about": "(Journal of cardiovascular translational research, 2014)",
  "origin": "cited, not measured here",
  "tested_on": "Mouse ESC",
  "details": "compared with the effect of CsA; ref [56]",
  "data": [
    {"compound": "11R-VIVIT", "values": [
      {"measurement": "effect on stem cells of other calcineurin/NFAT inhibitors", "result": "absence of a significant effect"}
    ]},
    {"compound": "C=CC[C@@H]1/C=C(\\C)C[C@H](C)C[C@H](OC)[C@H]2O[C@@](O)(C(=O)C(=O)N3CCCC[C@H]3C(=O)O[C@H](/C(C)=C/[C@@H]3CC[C@@H](O)[C@H](OC)C3)[C@H](C)[C@@H](O)CC1=O)[C@H](C)C[C@@H]2OC", "note": "[tacrolimus]", "values": [
      {"measurement": "effect on stem cells of other calcineurin/NFAT inhibitors", "result": "absence of a significant effect"}
    ]}
  ]
}
